The text below walks through data of patent publication US4459291A, “Compounds having antibiotic activity, processes for their preparation, pharmaceutical compositions containing them and their use as medicaments” (priority 1981, dated 1984).

Converted amounts (≈) assume the structure as drawn. “Also recorded” adds a separate entry of the source. Like-named read-outs stand apart in the source and are kept apart here.

For series [1], the system named is Bacillus subtilis No. 10707. Kind of series: Antibacterial activity by agar dilution method at pH 7.0. Format: cell-based.
Series [2] can be described thus: Solubility. The note with it: solvents named in the value.
The test system of series [3] is Klebsiella pneumoniae ATCC 10031. Nature of the series: Antibacterial activity by agar dilution method at pH 7.0. It is filed as cell-based. On the technique in general: In agar dilution the substance is mixed into plates at graded concentrations.
The subject of series [4] is Escherichia coli ATCC 26. The description is as above. Format: cell-based.
A short description of series [5]: LD50 (acute toxicity). As to conditions: in vivo.
The test system of series [6] is Salmonella typhosa ATCC 9992. Kind of series: Antibacterial activity by agar dilution method at pH 7.0. The note with it: Salmonella enterica. It is filed as cell-based.
The subject of series [7] is Staphylococcus aureus ATCC 6538P. The series is described as above. It is filed as cell-based. The note with it: ATCC6538P.

In general, LD50 refers to the dose expected to kill half of the subjects tested.

Take `COc1c2c(c(O)c3c4c(c(C)cc13)C1OC3(C(OC)OC)OC1C(O)(O4)C31CO1)C(=O)C(O)CC2O` (stereo not shown) [DC-45-A2]: the MIC is 100 µg/mL (≈ 193 µM) in series [1] (Bacillus subtilis No. 10707, agar dilution, pH 7.0, read-out: Minimum Inhibitory Concentration); 12 µg/mL (≈ 23.1 µM) in series [3] (ATCC10031, Klebsiella pneumoniae ATCC 10031, agar dilution, pH 7.0, read-out: Minimum Inhibitory Concentration); 25 µg/mL (≈ 48.2 µM) in series [4] (ATCC26, Escherichia coli ATCC 26, agar dilution, pH 7.0, read-out: Minimum Inhibitory Concentration); 50 µg/mL (≈ 96.4 µM) in series [6] (Salmonella typhosa ATCC 9992, agar dilution, pH 7.0, read-out: Minimum Inhibitory Concentration); 100 µg/mL (≈ 193 µM) in series [7] (Staphylococcus aureus ATCC 6538P, agar dilution, pH 7.0, read-out: Minimum Inhibitory Concentration). In series [2], the Solubility result is “Soluble in methanol, ethanol, acetone, ethyl acetate and chloroform; also recorded: soluble with difficulty in benzene, ether and water; also recorded: insoluble in n-hexane”. Also, the LD50 in series [5] (ip) was found to be 5.8 mg/kg; in series [5] (iv), 14 mg/kg.
In the case of `COc1c2c(c(O)c3c4c(c(C)cc13)C1OC3(C(OC)OC)OC1C(O)(O4)C31CO1)C(=O)C(O)CC2OC1CC(C)(O)C(OC(C)=O)C(C)O1` (stereo not shown) [DC-45-A1], the MIC came to 0.04 µg/mL (≈ 0.0568 µM) in series [1] (Bacillus subtilis, NO.10707, pH 7, read-out: Minimum Inhibitory Concentration); 0.4 µg/mL (≈ 0.568 µM) in series [3] (Klebsiella pneumoniae, ATCC10031, pH 7, read-out: Minimum Inhibitory Concentration); 12 µg/mL (≈ 17 µM) in series [4] (Escherichia coli, ATCC26, pH 7, read-out: Minimum Inhibitory Concentration); 50 µg/mL (≈ 71 µM) in series [6] (pH 7, read-out: Minimum Inhibitory Concentration); 0.4 µg/mL (≈ 0.568 µM) in series [7] (Staphylococcus aureus, pH 7, read-out: Minimum Inhibitory Concentration). The Solubility result in series [2] was “Soluble in methanol, ethanol, acetone, ethyl acetate and chloroform; also recorded: soluble with difficulty in benzene and aqueous ether; also recorded: insoluble in n-hexane”. The LD50 in series [5] (ip) and in series [5] (iv) was 0.375 mg/kg throughout.
